IC50 data for one compound are collected here from PMC6836034, “The Effect of Silymarin Flavonolignans and Their Sulfated Conjugates on Platelet Aggregation and Blood Vessels Ex Vivo” (Nutrients, 2019).

Usually IC50 stands for the concentration needed to halve the response being measured. Higher therefore signals weaker potency in that assay.

The target in the assay is T1, COX-1 (cyclooxygenase-1) (Ovis aries, UniProt P05979).
T1 construct: gene PTGS1
T1 sequence (P05979 25-600): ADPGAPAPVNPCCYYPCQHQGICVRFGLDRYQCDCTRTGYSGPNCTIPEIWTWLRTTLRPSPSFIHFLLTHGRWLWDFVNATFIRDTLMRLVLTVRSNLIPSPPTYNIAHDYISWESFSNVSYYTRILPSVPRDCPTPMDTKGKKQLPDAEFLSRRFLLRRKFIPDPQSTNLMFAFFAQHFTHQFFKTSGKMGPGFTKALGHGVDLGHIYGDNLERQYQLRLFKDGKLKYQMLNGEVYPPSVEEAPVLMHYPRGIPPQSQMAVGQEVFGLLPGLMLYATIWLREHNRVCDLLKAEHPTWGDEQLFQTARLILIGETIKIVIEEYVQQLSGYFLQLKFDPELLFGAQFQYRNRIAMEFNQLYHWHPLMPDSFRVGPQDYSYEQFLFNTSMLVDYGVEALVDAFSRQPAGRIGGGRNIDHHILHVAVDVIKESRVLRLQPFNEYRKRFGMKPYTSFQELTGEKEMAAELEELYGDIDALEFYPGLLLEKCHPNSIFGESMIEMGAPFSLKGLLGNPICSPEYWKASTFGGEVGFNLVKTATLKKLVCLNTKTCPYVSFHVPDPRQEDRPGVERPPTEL
Nature of the assay: biochemical.

`COc1cc(C2Oc3cc(-c4oc5cc(O)cc(O)c5c(=O)c4O)ccc3OC2CO)ccc1O` (racemic) [2,3-dehydrosilybin] came in with an IC50 of 25.2 ± 10.4 µM.
